Reference: publication PMC8330742, “New benzothieno[2,3-c]pyridines as non-steroidal CYP17 inhibitors: design, synthesis, anticancer screening, apoptosis induction, and in silico ADME profile studies” (Journal of Enzyme Inhibition and Medicinal Chemistry, 2021)

Key:
HCT-15 = assay: NCI-60 SRB screen; assay type: cell-based, human; conditions: Homo sapiens; HCT-15; single dose 10^−5 M; read-out: Growth inhibition (%)
NCI-H226 = assay: NCI-60 SRB screen; assay type: cell-based, human; conditions: Homo sapiens; NCI-H226; single dose 10^−5 M; read-out: Growth inhibition (%)
SN12C = assay: NCI-60 SRB screen; assay type: cell-based, human; conditions: Homo sapiens, SN12C; SN 12 C; single dose 10^−5 M; read-out: Growth inhibition (%)
SR = assay: NCI-60 SRB screen; assay type: cell-based; conditions: Homo sapiens, single dose 10^−5 M, read-out: Growth inhibition (%)
HCC-2998 = assay: NCI-60 SRB screen; assay type: cell-based, human; conditions: Homo sapiens; HCC-2998; single dose 10^−5 M; read-out: Growth inhibition (%)
ACHN = assay: NCI-60 SRB screen; assay type: cell-based; conditions: Homo sapiens, single dose 10^−5 M, read-out: Growth inhibition (%)
CAKI-1 = assay: NCI-60 SRB screen; assay type: cell-based, human; conditions: Homo sapiens; CAKI-1; single dose 10^−5 M; read-out: Growth inhibition (%)
IGROV1 = assay: NCI-60 SRB screen; assay type: cell-based, human; conditions: Homo sapiens, IGROV-1; IGROV1; single dose 10^−5 M; read-out: Growth inhibition (%)
HL-60(TB) = assay: NCI-60 SRB screen; assay type: cell-based, human; conditions: Homo sapiens; HL-60 (TB); single dose 10^−5 M; read-out: Growth inhibition (%)
NCI-H460 = assay: NCI-60 SRB screen; assay type: cell-based, human; conditions: Homo sapiens; NCI-H460; single dose 10^−5 M; read-out: Growth inhibition (%)
SK-MEL-2 = assay: NCI-60 SRB screen; assay type: cell-based, human; conditions: Homo sapiens; SK-MEL-2; single dose 10^−5 M; read-out: Growth inhibition (%)
NCI-H322M = assay: NCI-60 SRB screen; assay type: cell-based, human; conditions: Homo sapiens, single dose 10^−5 M, read-out: Growth inhibition (%)
MDA-MB-435 = assay: NCI-60 SRB screen; assay type: cell-based; conditions: Homo sapiens, MDA-MB-435, read-out: Growth inhibition (%)
SF-295 = assay: NCI-60 SRB screen; assay type: cell-based, human; conditions: Homo sapiens; SF-295; single dose 10^−5 M; read-out: Growth inhibition (%)
[1] = system: panel of 60 cancer cell lines; assay: NCI-60 SRB screen, mean or range over the panel; assay type: cell-based, human; conditions: Homo sapiens; mean over the cell lines; single dose 10^−5 M; read-out: Mean growth inhibition (%)
A549/ATCC = assay: NCI-60 SRB screen; assay type: cell-based, human; conditions: Homo sapiens, single dose 10^−5 M, read-out: Growth inhibition (%)
NCI-H23 = assay: NCI-60 SRB screen; assay type: cell-based, human; conditions: Homo sapiens; NCI-H23; single dose 10^−5 M; read-out: Growth inhibition (%)
OVCAR-8 = assay: NCI-60 SRB screen; assay type: cell-based, human; conditions: Homo sapiens; OVCAR-8; single dose 10^−5 M; read-out: Growth inhibition (%)
UACC-257 = assay: NCI-60 SRB screen; assay type: cell-based, human; conditions: Homo sapiens, UACC-257; UACC-275 (so in the source); single dose 10^−5 M; read-out: Growth inhibition (%)
OVCAR-3 = assay: NCI-60 SRB screen; assay type: cell-based, human; conditions: Homo sapiens; OVCAR-3; single dose 10^−5 M; read-out: Growth inhibition (%)
HOP-92 = assay: NCI-60 SRB screen; assay type: cell-based, human; conditions: Homo sapiens; HOP-92; single dose 10^−5 M; read-out: Growth inhibition (%)
HCT-116 = assay: NCI-60 SRB screen; assay type: cell-based, human; conditions: Homo sapiens; HCT-116; single dose 10^−5 M; read-out: Growth inhibition (%)
NCI/ADR-RES = assay: NCI-60 SRB screen; assay type: cell-based, human; conditions: Homo sapiens, single dose 10^−5 M, read-out: Growth inhibition (%)
M14 = assay: NCI-60 SRB screen; assay type: cell-based, human; conditions: Homo sapiens; M14; single dose 10^−5 M; read-out: Growth inhibition (%)
OVCAR-4 = assay: NCI-60 SRB screen; assay type: cell-based, human; conditions: Homo sapiens; OVCAR-4; single dose 10^−5 M; read-out: Growth inhibition (%)
UO-31 = assay: NCI-60 SRB screen; assay type: cell-based, human; conditions: Homo sapiens; UO-31; single dose 10^−5 M; read-out: Growth inhibition (%)
SK-OV-3 = assay: NCI-60 SRB screen; assay type: cell-based, human; conditions: Homo sapiens; SK-OV-3; single dose 10^−5 M; read-out: Growth inhibition (%)
SK-MEL-28 = assay: NCI-60 SRB screen; assay type: cell-based; conditions: Homo sapiens; SK-MEL-28; single dose 10^−5 M; read-out: Growth inhibition (%)
NCI-H522 = assay: NCI-60 SRB screen; assay type: cell-based, human; conditions: Homo sapiens; NCI-H522; single dose 10^−5 M; read-out: Growth inhibition (%)
786-0 = assay: NCI-60 SRB screen; assay type: cell-based; conditions: Homo sapiens; 786-0; single dose 10^−5 M; read-out: Growth inhibition (%)
COLO 205 = assay: NCI-60 SRB screen; assay type: cell-based, human; conditions: Homo sapiens; COLO 205; single dose 10^−5 M; read-out: Growth inhibition (%)
MOLT-4 = assay: NCI-60 SRB screen; assay type: cell-based; conditions: Homo sapiens; MOLT-4; single dose 10^−5 M; read-out: Growth inhibition (%)
UACC-62 = assay: NCI-60 SRB screen; assay type: cell-based, human; conditions: Homo sapiens; UACC-62; single dose 10^−5 M; read-out: Growth inhibition (%)
MALME-3M = assay: NCI-60 SRB screen; assay type: cell-based, human; conditions: Homo sapiens, single dose 10^−5 M, read-out: Growth inhibition (%)
KM12 = assay: NCI-60 SRB screen; assay type: cell-based, human; conditions: Homo sapiens; KM12; single dose 10^−5 M; read-out: Growth inhibition (%)
HT-29 = assay: NCI-60 SRB screen; assay type: cell-based; conditions: Homo sapiens; HT-29; single dose 10^−5 M; read-out: Growth inhibition (%)
TK-10 = assay: NCI-60 SRB screen; assay type: cell-based, human; conditions: Homo sapiens; TK-10; single dose 10^−5 M; read-out: Growth inhibition (%)
EKVX = assay: NCI-60 SRB screen; assay type: cell-based, human; conditions: Homo sapiens, single dose 10^−5 M, read-out: Growth inhibition (%)
K-562 = assay: NCI-60 SRB screen; assay type: cell-based, human; conditions: Homo sapiens, K562; K-562; single dose 10^−5 M; read-out: Growth inhibition (%)
HOP-62 = assay: NCI-60 SRB screen; assay type: cell-based, human; conditions: Homo sapiens; HOP-62; single dose 10^−5 M; read-out: Growth inhibition (%)
SF-268 = assay: NCI-60 SRB screen; assay type: cell-based, human; conditions: Homo sapiens; SF-268; single dose 10^−5 M; read-out: Growth inhibition (%)
LOX IMVI = assay: NCI-60 SRB screen; assay type: cell-based, human; conditions: Homo sapiens, single dose 10^−5 M, read-out: Growth inhibition (%)
CCRF-CEM = assay: NCI-60 SRB screen; assay type: cell-based; conditions: Homo sapiens, single dose 10^−5 M, read-out: Growth inhibition (%)
SW-620 = assay: NCI-60 SRB screen; assay type: cell-based; conditions: Homo sapiens; SW-620; single dose 10^−5 M; read-out: Growth inhibition (%)
SK-MEL-5 = assay: NCI-60 SRB screen; assay type: cell-based, human; conditions: Homo sapiens; SK-MEL-5; single dose 10^−5 M; read-out: Growth inhibition (%)

With O=C1NC(c2cccc([N+](=O)[O-])c2)c2sc3c(F)cccc3c2C1N1CCOCC1 (stereo not drawn) [Compound 6b, 8-Fluoro-4-morpholino-1(3-nitrophenyl)-1,2-dihydro[1]benzothieno[2,3-c]pyridin-3(4H)-one] the inhibition at 10 µM (HCT-15) was -4.99%, the inhibition at 10 µM (NCI-H226) was 19.4% and the inhibition at 10 µM (SN12C) was 2.85%. For the same compound, the inhibition at 10 µM (SR) was 14.4%, the inhibition at 10 µM (HCC-2998) was -9.62% and the inhibition at 10 µM (ACHN) was 4.34%. The inhibition at 10 µM (CAKI-1) was 23%, the inhibition at 10 µM (IGROV1) was 21.5% and the inhibition at 10 µM (HL-60(TB)) was 3%. It also gave an inhibition at 10 µM (NCI-H460) of 0.21%, an inhibition at 10 µM (SK-MEL-2) of -12.7% and an inhibition at 10 µM (NCI-H322M) of -2.43%. For the same compound, the inhibition at 10 µM (MDA-MB-435) was -9.63%, the inhibition at 10 µM (SF-295) was 1.1% and the inhibition at 10 µM [1] was 3.19%. For the same compound, the inhibition at 10 µM (A549/ATCC) was -0.83%, the inhibition at 10 µM (NCI-H23) was 5.78% and the inhibition at 10 µM (OVCAR-8) was 2.6%. It also gave an inhibition at 10 µM (UACC-257) of -10.7%, an inhibition at 10 µM (OVCAR-3) of 1.9% and an inhibition at 10 µM (HOP-92) of 13.3%. It also gave an inhibition at 10 µM (HCT-116) of 12.5%, an inhibition at 10 µM (NCI/ADR-RES) of 1.78% and an inhibition at 10 µM (M14) of -1.23%. It also gave an inhibition at 10 µM (OVCAR-4) of 0.3%, an inhibition at 10 µM (UO-31) of 31.8% and an inhibition at 10 µM (SK-OV-3) of 0.4%. It also gave an inhibition at 10 µM (SK-MEL-28) of -11.5%, an inhibition at 10 µM (NCI-H522) of 10.4% and an inhibition at 10 µM (786-0) of -11.1%. For the same compound, the inhibition at 10 µM (COLO 205) was -10.9%, the inhibition at 10 µM (MOLT-4) was 7.9% and the inhibition at 10 µM (UACC-62) was 3.55%. The inhibition at 10 µM (MALME-3M) was 0.18%, the inhibition at 10 µM (KM12) was 2.35% and the inhibition at 10 µM (HT-29) was 3.1%. The inhibition at 10 µM (TK-10) was -28.2%, the inhibition at 10 µM (EKVX) was 2.98% and the inhibition at 10 µM (K-562) was 6.63%. For the same compound, the inhibition at 10 µM (HOP-62) was 12.7%, the inhibition at 10 µM (SF-268) was 6.1% and the inhibition at 10 µM (LOX IMVI) was -0.6%. The inhibition at 10 µM (CCRF-CEM) was -0.89%, the inhibition at 10 µM (SW-620) was 7.48% and the inhibition at 10 µM (SK-MEL-5) was 0.57%.
